# Reference: patent publication US11976057B2, “MrgX2 antagonists” (GlaxoSmithKline Intellectual Property Development Limited, priority 2020, dated 2024)
# Molecular target: T1, human MRGPRX2 (Homo sapiens, UniProt Q96LB1)
# T1 sequence (Q96LB1 1-330): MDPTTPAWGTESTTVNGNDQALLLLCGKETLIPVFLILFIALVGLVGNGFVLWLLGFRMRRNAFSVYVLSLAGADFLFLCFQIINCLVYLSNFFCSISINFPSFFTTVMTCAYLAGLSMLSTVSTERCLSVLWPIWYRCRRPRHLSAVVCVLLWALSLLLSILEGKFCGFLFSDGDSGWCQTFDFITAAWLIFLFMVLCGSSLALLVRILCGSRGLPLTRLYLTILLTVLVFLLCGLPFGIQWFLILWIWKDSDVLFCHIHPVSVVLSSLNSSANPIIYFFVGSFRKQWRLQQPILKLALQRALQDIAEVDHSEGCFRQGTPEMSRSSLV
# Test: Ca2+ mobilization assay (FLIPR TETRA): inhibition of Cortistatin-14 mediated MRGPRX2 activation
row,IC50 [nM],Structure (SMILES)
1,≤ 10,"C[C@@H](C(=O)Nc1ccc(Oc2ccc(F)cc2)cn1)N1CCC(F)(F)[C@@H](c2cc[n+]([O-])c(CO)c2)C1 [Example 254, 4-((S)-4,4-difluoro-1-((S)-1-((5-(4-fluorophenoxy)pyridin-2-yl)amino)-1-oxopropan-2-yl)piperidin-3-yl)-2-(hydroxymethyl)pyridine 1-oxide]"
2,≤ 10,C[C@@H](C(=O)Nc1ccc(Oc2ccc(F)cc2F)cn1)N1CCC(F)(F)[C@@H](c2cc[n+]([O-])c(CO)c2)C1 [Example 255]
3,10 to 100,CC(C(=O)Nc1ccc(Oc2ccc(F)cc2)cn1)N1CCC(F)(F)C(c2cc[n+]([O-])c(C(O)C(F)(F)F)c2)C1 (stereo not drawn) [Example 257]
4,100 to 3160,CC(=O)NCc1cc(C2CN(C(C)C(=O)Nc3ccc(F)cn3)CCC2(F)F)cc[n+]1[O-] (stereo not drawn) [Example 263]
5,10 to 100,"CC(C(=O)Nc1ccc(Oc2cccc(=O)[nH]2)cn1)N1CCC(F)(F)[C@@H](c2ccc(=O)[nH]c2)C1 (stereo partly drawn) [Example 267, 2-((S)-4,4-difluoro-3-(6-oxo-1,6-dihydropyridin-3-yl)piperidin-1-yl)-N-(5-((6-oxo-1,6-dihydropyridin-2-yl)oxy)pyridin-2-yl)propanamide]"
6,≤ 10,COc1cc(F)ccc1Oc1ccc(NC(=O)[C@H](C)N2CCC(F)(F)[C@@H](c3ccc(=O)[nH]c3)C2)nc1 [Example 269]
7,10 to 100,"C[C@@H](C(=O)Nc1ccc(Oc2ccc(F)cc2CO)cn1)N1CCC(F)(F)[C@@H](c2ccc(=O)[nH]c2)C1 [Example 271, (S)-2-((S)-4,4-difluoro-3-(6-oxo-1,6-dihydropyridin-3-yl)piperidin-1-yl)-N-(5-(4-fluoro-2-(hydroxymethyl)phenoxy)pyridin-2-yl)propanamide]"
8,100 to 3160,CC(C(=O)Nc1cnc(Oc2ccc(F)cc2CO)cn1)N1CCC(F)(F)[C@@H](c2cc[n+]([O-])cc2)C1 (stereo partly drawn) [Example 274]
9,≤ 10,"C[C@@H](C(=O)Nc1ccc(Oc2ccc(F)cn2)cn1)[C@H]1CCC[C@@H](c2ccc(=O)[nH]c2)C1 [Example 283, (R)-N-(5((5-fluoropyridin-2-yl)oxy)pyridin-2-yl)-2-((1S,3R)-3-(6-oxo-1,6-dihydropyridin-3-yl)cyclohexyl)propanamide]"

# Second part, the molecule before the results:
row,Structure (SMILES),IC50 [nM]
1,"CC(C(=O)Nc1ccc(F)cn1)N1CCC(F)(F)C(c2cc[n+]([O-])c(C(O)C(F)(F)F)c2)C1 (stereo not drawn) [Example 256, 4-(4,4-difluoro-1-(1-((5-fluoropyridin-2-yl)amino)-1-oxopropan-2-yl)piperidin-3-yl)-2-(2,2,2-trifluoro-1-hydroxyethyl)pyridine 1-oxide]",10 to 100
2,"CC(C(=O)Nc1cnc(Oc2ccc(F)cc2F)cn1)N1CCC(F)(F)C(c2cc[n+]([O-])c(C(N)=O)c2)C1 (stereo not drawn) [Example 260, 2-carbamoyl-4-(1-(1-((5-(2,4-difluorophenoxy)pyrazin-2-yl)amino)-1-oxopropan-2-yl)-4,4-difluoropiperidin-3-yl)pyridine 1-oxide]",≤ 10
3,"C[C@@H](C(=O)Nc1ccc(Oc2ccc(F)c(F)c2)cn1)N1CCC(F)(F)[C@@H](c2ccc(=O)[nH]c2)C1 [Example 268, (S)-2-((S)-4,4-difluoro-3-(6-oxo-1,6-dihydropyridin-3-yl)piperidin-1-yl)-N-(5-(3,4-difluorophenoxy)pyridin-2-yl)propanamide]",≤ 10
4,C[C@@H](C(=O)Nc1cnc(Oc2ccc(F)cc2CO)cn1)N1CCC(F)(F)[C@@H](c2ccc(=O)[nH]c2)C1 [Example 272],10 to 100
5,"C[C@@H](C(=O)Nc1ccc(Oc2ccc(F)cc2CO)cn1)N1CCC(F)(F)[C@@H](c2cc[n+]([O-])cc2)C1 [Example 273, 4-((S)-4,4-difluoro-1-((S)-1-((5-(4-fluoro-2-(hydroxymethyl)phenoxy)pyridin-2-yl)amino)-1-oxopropan-2-yl)piperidin-3-yl)pyridine 1-oxide]",10 to 100
6,"C[C@@H](C(=O)Nc1ccc(OCC2CC2)nn1)[C@H]1CCC(F)(F)[C@@H](c2ccc(=O)[nH]c2)C1 [Example 276, (R)-N-(6-(cyclopropylmethoxy)pyridazin-3-yl)-2-((1S,3R)-4,4-difluoro-3-(6-oxo-1,6-dihydropyridin-3-yl)cyclohexyl)propanamide]",10 to 100
7,"C[C@@H](C(=O)Nc1ccc(F)cn1)[C@H]1CCC(F)(F)[C@@H](c2ccc(=O)[nH]c2)C1 [Example 277, (R)-2-((1S,3R)-4,4-difluoro-3-(6-oxo-1,6-dihydropyridin-3-yl)cyclohexyl)-N-(5-fluoropyridin-2-yl)propanamide]",10 to 100
8,"CC(C(=O)Nc1ccc(Oc2ccc(F)cc2)cn1)C1CCC(F)(F)C(c2ccc(=O)[nH]c2)C1 (stereo not drawn) [Example 278, 2-(4,4-difluoro-3-(6-oxo-1,6-dihydropyridin-3-yl)cyclohexyl)-N-(5-(4-fluorophenoxy)pyridin-2-yl)propanamide]",≤ 10
9,"C[C@@H](C(=O)Nc1ccc(Oc2ccc(F)cn2)cn1)[C@H]1CCC(F)(F)[C@@H](c2ccc(=O)[nH]c2)C1 [Example 279, (R)-2-((1S,3R)-4,4-difluoro-3-(6-oxo-1,6-dihydropyridin-3-yl)cyclohexyl)-N-(5-((5-fluoropyridin-2-yl)oxy)pyridin-2-yl)propanamide]",≤ 10
10,"C[C@@H](C(=O)Nc1ccc(Oc2ccc(F)cc2F)cn1)[C@H]1CCC(F)(F)[C@@H](c2ccc(=O)[nH]c2)C1 [Example 280, (R)-2-((1S,3R)-4,4-difluoro-3-(6-oxo-1,6-dihydropyridin-3-yl)cyclohexyl)-N-(5-(2,4-difluorophenoxy)pyridin-2-yl)propanamide]",≤ 10
11,"C[C@@H](C(=O)Nc1ccc(Oc2ncc(F)cc2F)cn1)[C@H]1CCC(F)(F)[C@@H](c2ccc(=O)[nH]c2)C1 [Example 281, (R)-2-((1S,3R)-4,4-difluoro-3-(6-oxo-1,6-dihydropyridin-3-yl)cyclohexyl)-N-(5-((3,5-difluoropyridin-2-yl)oxy)pyridin-2-yl)propanamide]",≤ 10
12,"C[C@@H](C(=O)Nc1ccc(Oc2ccc(F)cc2F)cn1)[C@H]1CCC[C@@H](c2ccc(=O)[nH]c2)C1 [Example 282, (R)—N-(5-(2,4-difluorophenoxy)pyridin-2-yl)-2-((1S,3R)-3-(6-oxo-1,6-dihydropyridin-3-yl)cyclohexyl)propanamide]",≤ 10
13,"CC(C(=O)Nc1cnc(Oc2ccc(F)cc2)cn1)C1CCC[C@@H](c2ccc(=O)[nH]c2)C1 (stereo partly drawn) [Example 284, N-(5-(4-fluorophenoxy)pyrazin-2-yl)-2-((3R)-3-(6-oxo-1,6-dihydropyridin-3-yl)cyclohexyl)propanamide]",10 to 100
14,"C[C@@H](C(=O)Nc1ccc(Oc2ncc(F)cc2F)cn1)[C@H]1CCC[C@@H](c2ccc(=O)[nH]c2)C1 [Example 285, (R)-N-(5-((3,5-difluoropyridin-2-yl)oxy)pyridin-2-yl)-2-((1S,3R)-3-(6-oxo-1,6-dihydropyridin-3-yl)cyclohexyl)propanamide]",≤ 10
15,"C[C@@H](C(=O)Nc1cnc(Oc2ccc(F)cc2F)cn1)[C@H]1CCC[C@@H](c2ccc(=O)[nH]c2)C1 [Example 286, (R)-N-(5-(2,4-difluorophenoxy)pyrazin-2-yl)-2-((1S,3R)-3-(6-oxo-1,6-dihydropyridin-3-yl)cyclohexyl)propanamide]",≤ 10
